Results published in ChEMBL document CHEMBL1155888, “Synthesis, inhibitory activities, and QSAR study of xanthone derivatives as alpha-glucosidase inhibitors” (Bioorg Med Chem, 2008).

Experiment: Inhibition of yeast alpha glucosidase in phosphate buffer after 0.5 hrs by spectrophotometry
Parameters: species or system Saccharomyces

Structure (SMILES)	IC50
O=c1c2cc3ccccc3cc2oc2c3c(cc(O)c12)OCCC3	67.3 µM
Nc1c(O)cc(O)c2c(=O)c3ccccc3oc12	102 µM
O=c1c2ccc(OCC3CO3)cc2oc2cccc(O)c12 (stereo not drawn)	63.5 µM
O=c1c2ccccc2oc2cc(OCCCN3CCN(c4cccc(Cl)c4)CC3)cc(O)c12	61.8 µM
O=c1c2ccccc2oc2cccc(O)c12	177 µM
O=c1c2ccccc2oc2c([N+](=O)[O-])c(O)cc(O)c12	235 µM
CCCCCCCOc1cc(O)c2c(=O)c3ccccc3oc2c1	114 µM
CC(=O)Oc1cc(OC(C)=O)c2c(=O)c3c(OC(C)=O)cc(OC(C)=O)cc3oc2c1	49.7 µM
O=c1c2c(O)cccc2oc2cc(O)cc(O)c12	81.8 µM
O=c1c2cc3ccccc3cc2oc2c([N+](=O)[O-])c(O)cc(O)c12	20.1 µM
O=c1c2cc3cc(O)ccc3cc2oc2cc(O)cc(O)c12	5.8 µM
O=c1c2ccccc2oc2cc(OCc3ccccc3)cc(O)c12	98.2 µM
Oc1cc(O)c2c(c1)Oc1ccc3ccccc3c1C2	34.9 µM
O=c1c2c(O)cc(O)cc2oc2ccc3ccccc3c12	39.9 µM
O=c1c2cc3ccccc3cc2oc2cc(OCCCBr)cc(O)c12	29.7 µM
O=c1c2c(O)cccc2oc2cccc(O)c12	91.5 µM
CC(=O)Oc1cc(OC(C)=O)c2c(=O)c3cc(OC(C)=O)ccc3oc2c1	46.5 µM
Nc1c(O)cc(O)c2c(=O)c3cc4ccccc4cc3oc12	8.3 µM
O=c1c2cc3ccccc3cc2oc2cc(O)c([N+](=O)[O-])c(O)c12	5.9 µM
CC(=O)Oc1cc(OC(C)=O)c2c(=O)c3ccccc3oc2c1	31.9 µM
O=c1c2cc3cccc(O)c3cc2oc2cc(O)cc(O)c12	8 µM
COc1cc(O)c2c(=O)c3ccccc3oc2c1	173 µM

Structure (SMILES)	IC50
O=c1c2ccc(OCCCN3CCCCC3)cc2oc2cccc(O)c12	133 µM
COc1cc(O)c2c(=O)c3cc4ccccc4cc3oc2c1	31.3 µM
O=c1c2cc3ccccc3cc2oc2cc(O)cc(O)c12	9.3 µM
CC(=O)Oc1ccc2c(=O)c3c(OC(C)=O)cccc3oc2c1	139 µM
CCCCCOc1cc(O)c2c(=O)c3ccccc3oc2c1	121 µM
O=c1c2ccccc2oc2cc(OCC3CCCO3)cc(O)c12 (stereo not drawn)	53 µM
O=c1c2ccccc2oc2cc(OCCCN3CCCCC3)cc(O)c12	115 µM
CCOc1cc(O)c2c(=O)c3ccccc3oc2c1	111 µM
Oc1cc(O)c2c(c1)Oc1cc3ccccc3cc1C2	27.8 µM
O=c1c2ccccc2oc2cc(OCCCBr)cc(O)c12	147 µM
O=c1c2ccc(O)cc2oc2cc(O)cc(O)c12	41.5 µM
O=c1c2ccccc2oc2cc(O)cc(O)c12	161 µM
CCCCCCCCCCOc1cc(O)c2c(=O)c3ccccc3oc2c1	116 µM
O=c1c2ccccc2oc2cc(OCC3CO3)cc(O)c12 (stereo not drawn)	66.6 µM
O=c1c2c(O)cc(O)cc2oc2cc(O)cc(O)c12	17.1 µM
CCCCOc1cc(O)c2c(=O)c3ccccc3oc2c1	130 µM
CCCCCCCCOc1cc(O)c2c(=O)c3ccccc3oc2c1	124 µM
O=c1c2ccc(O)cc2oc2cccc(O)c12	131 µM
Nc1c(O)cc2oc3cc4ccccc4cc3c(=O)c2c1O	6.3 µM
O=c1c2cc(O)ccc2oc2cc(O)cc(O)c12	14.7 µM
O=c1c2ccccc2oc2c3c(cc(O)c12)OCCC3	198 µM
